The source of these data is patent publication US9617225B2 (VIROSTATICS SRL, priority 2012, dated 2017).

Structures can show the parent of a compound that is named as a salt. Where two headings read alike, the source gives them in different places. Some results are limits rather than exact numbers.

For this experiment, the target named is human CDK9/CyclinT kinase complex (Homo sapiens (Human), UniProt P50750). Kind of experiment: In Vitro CDK9/CyclinT Assay (IMAP fluorescent polarization). In kind it is biochemical. As for the experimental part:
In Vitro CDK9/CyclinT Assay
The activity of the compounds described in the present invention can be determined by measuring the phosphorylation of a fluorescently-labeled peptide by human CDK9/CyclinT kinase complex by fluorescent polarization using a commercially available IMAP Screening Express Assay Kit (Molecular devices).
Test compounds were diluted in 100% DMSO to 5 mM stock concentration, then further dilutions were made in H2O or 100% DMSO to desirable concentrations. Each reaction consisted of 5 nM enzyme: CDK9/CyclinT (Proqinase cat#0371-0345-1), 400 nM TAMRA-Rbtide (synthetic 15-mer peptide derived from human retinoblastoma tumor suppressor protein labeled with TAMRA dye, Genecust Europe), 12 μM ATP (=Kmapp, Sigma-Aldrich) and kinase buffer: 20 mM MOPS pH 7 (Sigma-Aldrich), 1 mM DTT (Sigma-Aldrich), 10 mM MgCl2 (Sigma-Aldrich), 0.01% Tween 20 (Sigma-Aldrich).
For each reaction, 4 or 6 μl containing TAMRA-Rbtide, ATP and kianse buffer were combined with 2 μl diluted compound in H2O or 0.028 μl compound in 100% DMSO. The kinase reaction was started by the addition of 2 μl diluted enzyme. The reaction was allowed to run for 1 hour at room temperature. The reaction was stopped by adding 15 μl IMAP beads (1:400 beads in progressive (100% buffer A) 1× buffer).

Chain of human CDK9/CyclinT kinase complex (P50750 whole entry): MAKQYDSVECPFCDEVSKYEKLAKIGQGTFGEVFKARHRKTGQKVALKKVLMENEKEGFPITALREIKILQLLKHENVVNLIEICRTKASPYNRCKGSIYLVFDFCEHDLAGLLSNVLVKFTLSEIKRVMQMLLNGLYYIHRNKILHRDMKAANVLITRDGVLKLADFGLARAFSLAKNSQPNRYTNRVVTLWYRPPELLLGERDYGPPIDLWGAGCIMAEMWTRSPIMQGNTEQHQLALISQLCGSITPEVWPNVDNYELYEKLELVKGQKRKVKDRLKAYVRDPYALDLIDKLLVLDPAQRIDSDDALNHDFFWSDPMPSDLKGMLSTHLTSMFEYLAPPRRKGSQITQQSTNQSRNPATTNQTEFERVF
Chain of human CDK9/CyclinT kinase complex (O60563 whole entry partner): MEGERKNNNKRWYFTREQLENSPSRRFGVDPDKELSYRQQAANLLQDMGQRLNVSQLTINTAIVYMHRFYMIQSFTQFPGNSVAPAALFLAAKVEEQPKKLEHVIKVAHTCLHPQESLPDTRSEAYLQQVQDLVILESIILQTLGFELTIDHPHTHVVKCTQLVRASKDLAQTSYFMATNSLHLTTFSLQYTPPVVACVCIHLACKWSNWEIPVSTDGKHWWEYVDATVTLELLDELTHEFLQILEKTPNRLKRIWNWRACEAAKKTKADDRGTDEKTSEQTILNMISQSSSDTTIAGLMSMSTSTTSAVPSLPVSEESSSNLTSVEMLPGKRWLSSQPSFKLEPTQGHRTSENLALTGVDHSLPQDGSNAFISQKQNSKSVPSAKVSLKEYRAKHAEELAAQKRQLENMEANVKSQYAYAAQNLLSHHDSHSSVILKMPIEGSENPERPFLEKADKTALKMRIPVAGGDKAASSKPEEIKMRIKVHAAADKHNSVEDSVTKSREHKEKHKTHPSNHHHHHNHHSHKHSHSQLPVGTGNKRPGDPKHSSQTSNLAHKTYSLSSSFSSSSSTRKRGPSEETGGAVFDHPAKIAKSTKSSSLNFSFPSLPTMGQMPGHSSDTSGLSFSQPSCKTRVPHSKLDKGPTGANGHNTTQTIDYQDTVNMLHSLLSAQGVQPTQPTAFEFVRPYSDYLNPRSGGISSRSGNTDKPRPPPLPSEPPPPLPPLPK

As usually defined, the IC50 is the point on the concentration scale where inhibition reaches its midpoint. Low values mean greater potency, high ones weaker potency. For the setting “Table 1”, `COc1ccc(Nc2cc(-c3cccc(F)c3OC)ncn2)cc1[N+](=O)[O-]` [Example 80, [6-(3-Fluoro-2-methoxy-phenyl)-pyrimidin-4-yl]-(4-methoxy-3-nitro-phenyl)-amine] yielded an IC50 above 10 µM. Take `CCOc1ccccc1-c1cc(Nc2ccc(OC)c([N+](=O)[O-])c2)ncn1` [Example 61, [6-(2-Ethoxy-phenyl)-pyrimidin-4-yl]-(4-methoxy-3-nitro-phenyl)-amine]: where the note is “Table 1”, the 50% inhibitory concentration (IC50) was below 1 µM. The same measure, in the same setting: the figure for `COc1ccc(F)cc1-c1cc(Nc2ccc(OC)c([N+](=O)[O-])c2)ncn1` [Example 74, [6-(5-Fluoro-2-methoxy-phenyl)-pyrimidin-4-yl]-(4-methoxy-3-nitro-phenyl)-amine] is below 10 µM. On the same count and under the same terms, the figure for `COc1ccccc1-c1cc(Nc2cc(F)c(OC)c([N+](=O)[O-])c2)ncn1` [Example 87, (3-Fluoro-4-methoxy-5-nitro-phenyl)-[6-(2-methoxy-phenyl)-pyrimidin-4-yl]-amine] is below 10 µM.

In turn, `COc1ccc(Nc2cc(-c3ccccc3OC)ncn2)cc1C(=O)NCCCN1CCN(C)CC1` [Example 47, 2-Methoxy-5-[6-(2-methoxy-phenyl)-pyrimidin-4-ylamino]-N-[3-(4-methyl-piperazin-1-yl)-propyl]-benzamide] gave an IC50 below 1 µM.

On to `COc1ccc(Nc2cc(-c3ccccc3OC)ncn2)cc1NC(C)=O` [Example 50, N-{2-Methoxy-5-[6-(2-methoxy-phenyl)-pyrimidin-4-ylamino]-phenyl}-acetamide], for which the IC50 is below 1 µM.

`COc1ccc(Nc2cc(-c3ccccc3OC)ncn2)cc1C1=CCNCC1` [Example 116, [6-(2-Methoxy-phenyl)-pyrimidin-4-yl]-[4-methoxy-3-(1,2,3,6-tetrahydro-pyridin-4-yl)-phenyl]-amine] came in with an IC50 (Table 1) below 0.1 µM. `COc1ccccc1-c1cc(Nc2ccc([N+](=O)[O-])c(F)c2)ncn1` [Example 57, (3-Fluoro-4-nitro-phenyl)-[6-(2-methoxy-phenyl)-pyrimidin-4-yl]-amine] displayed a half-maximal inhibitory concentration (IC50) (Table 1) below 10 µM.

In turn, `COc1cc(F)ccc1-c1cc(Nc2ccc(F)c(N)c2)ncn1` [Example 104, 4-Fluoro-N^1-[6-(4-fluoro-2-methoxy-phenyl)-pyrimidin-4-yl]-benzene-1,3-diamine] returned an IC50 (Table 1) below 1 µM. For the compound `COC(=O)Oc1cc(Nc2cc(-c3ccccc3OC)ncn2)ccc1OC` [Example 95, Carbonic acid 2-methoxy-5-[6-(2-methoxy-phenyl)-pyrimidin-4-ylamino]-phenyl ester methyl ester], the IC50 (Table 1) is below 1 µM.

For `COc1ccc(Nc2cc(-c3ccccc3OC(C)C)ncn2)cc1[N+](=O)[O-]` [Example 78, [6-(2-Isopropoxy-phenyl)-pyrimidin-4-yl]-(4-methoxy-3-nitro-phenyl)-amine], the 50% inhibitory concentration (IC50) (Table 1) was below 10 µM. On to `CCOc1ccccc1-c1cc(Nc2ccc(OC)c(O)c2)ncn1` [Example 124, 5-[6-(2-Ethoxy-phenyl)-pyrimidin-4-ylamino]-2-methoxy-phenol], for which the concentration for half-maximal inhibition (IC50) (Table 1) was below 1 µM. In the case of `CNC(=O)Nc1cc(Nc2cc(-c3ccccc3OC)ncn2)ccc1OC` [Example 52, 1-{2-Methoxy-5-[6-(2-methoxy-phenyl)-pyrimidin-4-ylamino]-phenyl}-3-methyl-urea], the IC50 (Table 1) was below 1 µM. Consider `CCOc1ccc(Nc2cc(-c3ccccc3OC)ncn2)cc1[N+](=O)[O-]` [Example 100, (4-Ethoxy-3-nitro-phenyl)-[6-(2-methoxy-phenyl)-pyrimidin-4-yl]-amine], for which the IC50 (Table 1) was below 10 µM. Where the note is “Table 1”, `COc1cc(Nc2cc(-c3ccccc3OC)ncn2)ccc1C(=O)NCCO` [Example 135, N-(2-Hydroxy-ethyl)-2-methoxy-4-[6-(2-methoxy-phenyl)-pyrimidin-4-ylamino]-benzamide] gave an IC50 below 1 µM. On to `COC(=O)N(C)c1cc(Nc2cc(-c3ccccc3OC)ncn2)ccc1OC` [Example 98, {2-Methoxy-5-[6-(2-methoxy-phenyl)-pyrimidin-4-ylamino]-phenyl}-methyl-carbamic acid methyl ester hydrochloride], for which the IC50 was below 1 µM. Compound `COc1ccccc1-c1cc(Nc2ccc(Oc3ccccc3)c(N)c2)ncn1` [Example 97, N^1-[6-(2-Methoxy-phenyl)-pyrimidin-4-yl]-4-phenoxy-benzene-1,3-diamine] came in with a concentration for half-maximal inhibition (IC50) (Table 1) below 10 µM.

As for `COc1ccc(Nc2cc(-c3ccc(F)cc3OC)ncn2)cc1NC(N)=O` [Example 119, {5-[6-(4-Fluoro-2-methoxy-phenyl)-pyrimidin-4-ylamino]-2-methoxy-phenyl}-urea], the IC50 (Table 1) is below 1 µM. As to `COC(=O)Oc1cc(Nc2cc(-c3ccc(F)cc3OC)ncn2)ccc1OC` [Example 125, Carbonic acid 5-[6-(4-fluoro-2-methoxy-phenyl)-pyrimidin-4-ylamino]-2-methoxy-phenyl ester methyl ester], the IC50 (Table 1) was below 1 µM. The same measure, in the same setting: the figure for `COc1ccc(F)cc1-c1cc(Nc2cc(N)c(OC)c(F)c2)ncn1` [Example 91, 5-Fluoro-N^1-[6-(5-fluoro-2-methoxy-phenyl)-pyrimidin-4-yl]-4-methoxy-benzene-1,3-diamine] is below 1 µM. `COc1ccc(Nc2cc(-c3ccccc3OC)ncn2)cc1Br` [Example 115, (3-Bromo-4-methoxy-phenyl)-[6-(2-methoxy-phenyl)-pyrimidin-4-yl]-amine] had a half-maximal inhibitory concentration (IC50) below 10 µM. Take `COc1cc(F)c(F)cc1-c1cc(Nc2ccc(OC)c([N+](=O)[O-])c2)ncn1` [Example 82, [6-(4,5-Difluoro-2-methoxy-phenyl)-pyrimidin-4-yl]-(4-methoxy-3-nitro-phenyl)-amine]: where the note is “Table 1”, the IC50 was above 10 µM.

Under “Table 1”, `COc1ccc(Nc2cc(-c3ccccc3OC)ncn2)cc1C(=O)NCCO` [Example 48, N-(2-Hydroxy-ethyl)-2-methoxy-5-[6-(2-methoxy-phenyl)-pyrimidin-4-ylamino]-benzamide] registered an IC50 below 1 µM. As to `CCOc1ccc(Nc2cc(-c3ccc(F)cc3OC)ncn2)cc1[N+](=O)[O-]` [Example 103, (4-Ethoxy-3-nitro-phenyl)-[6-(4-fluoro-2-methoxy-phenyl)-pyrimidin-4-yl]-amine], for the setting “Table 1”, the IC50 was below 1 µM. For `COc1ccc(-c2cc(Nc3ccc(OC)c([N+](=O)[O-])c3)ncn2)cc1` [Example 65, (4-Methoxy-3-nitro-phenyl)-[6-(4-methoxy-phenyl)-pyrimidin-4-yl]-amine], the IC50 was above 10 µM.

On to `COc1ccccc1-c1cc(Nc2ccc([N+](=O)[O-])c(OC)c2)ncn1` [Example 58, (3-Methoxy-4-nitro-phenyl)-[6-(2-methoxy-phenyl)-pyrimidin-4-yl]-amine], for which the concentration for half-maximal inhibition (IC50) (Table 1) is below 10 µM. `COc1cc(F)ccc1-c1cc(Nc2ccc(F)c([N+](=O)[O-])c2)ncn1` [Example 102, [6-(4-Fluoro-2-methoxy-phenyl)-pyrimidin-4-yl]-(4-fluoro-3-nitro-phenyl)-amine] gave a concentration for half-maximal inhibition (IC50) below 10 µM.

Take `COc1ccc(Nc2cc(-c3ccccc3Oc3ccccc3)ncn2)cc1[N+](=O)[O-]` [Example 76, (4-Methoxy-3-nitro-phenyl)-[6-(2-phenoxy-phenyl)-pyrimidin-4-yl]-amine]: where the note is “Table 1”, the concentration for half-maximal inhibition (IC50) was above 10 µM. Same read-out and setting: the figure for `COc1ccc(Nc2cc(-c3cc(F)c(F)cc3OC)ncn2)cc1NC=O` [Example 84, N-{5-[6-(4,5-Difluoro-2-methoxy-phenyl)-pyrimidin-4-ylamino]-2-methoxy-phenyl}-formamide] is below 1 µM.

Turning to `CCOc1ccc(Nc2cc(-c3ccccc3OC)ncn2)cc1O` [Example 110, 2-Ethoxy-5-[6-(2-methoxy-phenyl)-pyrimidin-4-ylamino]-phenol], the 50% inhibitory concentration (IC50) (Table 1) was below 1 µM. `COc1cc(Nc2cc(-c3ccccc3OC)ncn2)ccc1OCc1ccccc1` [Example 120, (4-Benzyloxy-3-methoxy-phenyl)-[6-(2-methoxy-phenyl)-pyrimidin-4-yl]-amine] yielded a 50% inhibitory concentration (IC50) below 10 µM. On to `COc1ccc(Nc2cc(-c3ccccc3OC)ncn2)cc1NC(N)=O` [Example 56, {2-Methoxy-5-[6-(2-methoxy-phenyl)-pyrimidin-4-ylamino]-phenyl}-urea], for which the 50% inhibitory concentration (IC50) (Table 1) is below 1 µM. `COC(=O)Nc1cc(Nc2cc(-c3ccccc3OC)ncn2)ccc1OC` [Example 51, {2-Methoxy-5-[6-(2-methoxy-phenyl)-pyrimidin-4-ylamino]-phenyl}-carbamic acid methyl ester] showed a half-maximal inhibitory concentration (IC50) (Table 1) below 1 µM.

Regarding `COc1ccccc1-c1cc(Nc2ccc(N(C)C)c(O)c2)ncn1` [Example 108, 2-Dimethylamino-5-[6-(2-methoxy-phenyl)-pyrimidin-4-ylamino]-phenol], the concentration for half-maximal inhibition (IC50) is below 1 µM. `COc1ccc(Nc2cc(-c3ccc(F)cc3OC(C)C)ncn2)cc1[N+](=O)[O-]` [Example 85, [6-(4-Fluoro-2-isopropoxy-phenyl)-pyrimidin-4-yl]-(4-methoxy-3-nitro-phenyl)-amine] had a half-maximal inhibitory concentration (IC50) (Table 1) below 1 µM.

`COc1ccc(Nc2cc(-c3ccccc3OC)ncn2)cc1OC(C)=O` [Example 93, Acetic acid 2-methoxy-5-[6-(2-methoxy-phenyl)-pyrimidin-4-ylamino]-phenyl ester] returned an IC50 below 1 µM.

Compound `COc1ccccc1-c1cc(Nc2ccc(Oc3ccccc3)c([N+](=O)[O-])c2)ncn1` [Example 96, [6-(2-Methoxy-phenyl)-pyrimidin-4-yl]-(3-nitro-4-phenoxy-phenyl)-amine] yielded an IC50 above 10 µM.
